{
  "source": "paper PMC5571211",
  "about": "(Scientific Reports, 2017)",
  "key": {"[1]": {"test_system": "5-LOX product formation (FLAP) in human monocytes", "test": "5-LOX product formation in intact human monocytes stimulated with Ca2+-ionophore A23187", "type": "cell-based", "details": "Monocyte, 5 h, read-out: IC50, formation of LTB4 and its isomers and of 5-H(p)ETE (5-LOX product formation)", "method": "Peripheral blood (University Hospital Jena, Germany) was collected from fasted healthy adult donors that were informed about the aim of the study and gave written consent. The protocols for experiments with neutrophils or monocytes were approved by the ethical commission of the Friedrich-Schiller-University Jena (approval number 4292-12/14). All methods were performed in accordance with the relevant guidelines and regulations. Leukocyte concentrates were obtained by centrifugation (4000 × g, 20 min, 20 °C) of heparinized blood preparations. Neutrophils and monocytes were immediately isolated as described before. In brief, leukocyte concentrates were subjected to dextran sedimentation and centrifuged on lymphocyte separation medium (LSM 1077, PAA, Coelbe, Germany). For isolation of pelleted neutrophils, remaining erythrocytes were removed by hypotonic lysis, washed twice with ice-cold PBS and resuspended in medium to a cell density described for the respective experiments. […]\nHuman recombinant 5-LOX was expressed in E.coli BL21 transformed with pT3-5-LOX plasmid at 30 °C overnight as described before. […] After elution with methanol, samples were analyzed by RP-HPLC using a C-18 Radial-PAK column (Waters, Eschborn, Germany). […]"}, "[2]": {"test_system": "zymosan-induced peritonitis", "test": "Zymosan-induced peritonitis mouse model", "type": "in vivo", "details": "for myeloperoxidase activity / myeloperoxidase activity, % of vehicle control / leukocyte recruitment: 4 h after zymosan; for vascular permeability, % of vehicle control: 30 min after zymosan", "method": "The animal studies are reported in accordance with the ARRIVE guidelines for reporting animal research. Male CD-1 mice (33–39 g, 8–9 weeks, Charles River Laboratories, Calco, Italy) were housed in a controlled environment (21 ± 2 °C) and provided with standard rodent chow and water ad libitum. Mice received a standard diet containing 5.7% fat, 18.9% protein and 57.3% carbohydrate (Global Diet 2018, ENVIGO, Italy). The fatty acid composition was according to Matias et al.[67].\nPrior to experiments, all mice were allowed to acclimate for 5 days and kept at 12 h light–dark schedule, in which experiments were performed during the light phase. Animal care was in compliance with Italian regulations on protection of animals used for experimental and other scientific purpose (Ministerial Decree 116/92) and with the European Economic Community regulations (Official Journal of E.C. L 358/1 12/18/1986). Animal studies were approved by the local ethical committee of the University of Naples Federico II on 27 February 2014 (approval number 2014/18760). […] Zymosan (Sigma, Milan, Italy) was prepared and injected i.p. as a final suspension (2 mg/mL) in 0.9% saline solution after boiling, centrifugation and sonication. Peritoneal lavage (3 mL of cold PBS) was performed after CO2-euthanasia at indicated time points, followed by 60 sec of gentle manual massage. Two mL of exudates were collected and infiltrated cells were determined using a Burker chamber and vital trypan blue staining. Pelleted samples (18,000 × g, 5 min, 4 °C) were frozen (−80 °C) and assayed for myeloperoxidase (MPO) activity (pellet) or LTC4 and LTB4 formation (supernatant), respectively.\nMPO of neutrophils was examined as follows: pellets from exudates were resuspended in PBS (50 mM, pH 6) containing 0.5% hexadecyltrimethyl-ammonium bromide and sonicated, followed by 3 freeze-thawing cycles and a final sonication. Supernatants of centrifuged samples (18,000 × g, 30 min) were added to a 96-well plate and reactions were initiated by addition of PBS (50 mM, pH 6) containing o-dianisidine (0.167 mg/mL) and hydrogen peroxide (0.0005%). Absorbance was monitored in the kinetic mode (Biorad Imark microplate) and levels of MPO were determined using a calibration curve with human neutrophils as reference standard. MPO levels were expressed as units MPO per mouse. LTC4 and LTB4 formation within the supernatants were determined by EIA (Enzo Life Sciences International Inc., Lörrach, Germany) according to manufacturer’s protocol.\nVascular permeability was assessed according to a previous report. Briefly, 0.3 mL of 0.9% saline solution supplemented with Evans blue dye (40 mg/kg) was injected intravenously (i.v.) into the caudal vein followed by immediate peritonitis induction (using zymosan). After 30 min, peritoneal lavage exudates of CO2-euthanized were collected as described above. Absorbance of the centrifuged supernatants (3,000 × g, 5 min) was measured at 650 nm (Beckman Coulter DU730)."}, "[3]": {"details": "mice, 1 mg/kg i.p. 30 min before zymosan"}},
  "note": "Read-outs that look alike come from different tables or passages of the source.",
  "data": [
    {"smiles": "CC(C)c1ccc2c(c1)c(SC(C)(C)C)c(CC(C)(C)C(=O)O)n2Cc1ccc(Cl)cc1", "note": "[MK886, 3-[1-(4-chlorobenzyl)-3-t-butyl-thio-5-isopropylindol-2-yl]-2,2 - dimethylpropanoic acid]", "values": [
      {"measurement": "IC50", "setting": "[1]; intact human monocytes, Ca2+-ionophore A23187, no AA supplementation", "result": "~3", "unit": "nM"},
      {"measurement": "LTB4 peritoneal levels", "setting": "[2]; [3]", "result": "comparable to the effect of MK886"},
      {"measurement": "LTC4 peritoneal levels", "setting": "[2]; [3]", "result": "comparable to the effect of MK886"},
      {"measurement": "myeloperoxidase activity", "setting": "[2]; mice, 1 mg/kg i.p.", "result": "0.72 ± 0.13", "unit": "U/mL"},
      {"measurement": "myeloperoxidase activity, % of vehicle control", "setting": "[2]; mice, 1 mg/kg i.p.", "result": "58.5 ± 10.6 % of vehicle control"},
      {"measurement": "vascular permeability, % of vehicle control", "setting": "[2]; mice, 3 mg/kg i.p.", "result": "48.6 ± 3.2 % of vehicle control"},
      {"measurement": "leukocyte recruitment", "setting": "[2]; mice, MK886 i.p.", "result": "block of leukocyte recruitment"}
    ]},
    {"smiles": "Cc1cc(OCc2nc3ccccc3s2)ccc1NC(=O)Nc1ccc(Cl)c(Cl)c1", "note": "[diflapolin, N-[4-(benzothiazol-2-ylmethoxy)-2-methylphenyl]-N′-(3,4-dichlorophenyl)urea]", "values": [
      {"measurement": "IC50", "setting": "[1]; Homo sapiens", "result": 30, "unit": "nM"},
      {"measurement": "vascular permeability, % of vehicle control", "setting": "[2]; mice, 10 mg/kg i.p.", "result": "55.7 ± 14.4 % of vehicle control"},
      {"measurement": "myeloperoxidase activity", "setting": "[2]; mice, 10 mg/kg i.p.", "result": "0.65 ± 0.15", "unit": "U/mL"},
      {"measurement": "myeloperoxidase activity, % of vehicle control", "setting": "[2]; mice, 10 mg/kg i.p.", "result": "52.8 ± 12.2 % of vehicle control"},
      {"measurement": "LTC4 peritoneal levels", "setting": "[2]; mice, 1, 3 and 10 mg/kg i.p. 30 min before zymosan, analysed 30 min after zymosan", "result": "significant reduction"},
      {"measurement": "LTB4 peritoneal levels", "setting": "[2]; mice, 1, 3 and 10 mg/kg i.p. 30 min before zymosan, analysed 4 h after zymosan", "result": "significant reduction"},
      {"measurement": "leukocyte recruitment", "setting": "[2]; mice, 1, 3 and 10 mg/kg i.p., dose-dependent", "result": "block of leukocyte recruitment"}
    ]}
  ]
}
